Earlier results as cited in US10022338B2, “Honey bee mite disruptive compounds and methods of application” (SIMON FRASER UNIVERSITY, priority 2014, dated 2018).

Test system: olfactory sensory organ on the Varroa foreleg
Settings: separate study

In the case of `CCN(CC)C(=O)c1cccc(C)c1` [DEET, 3-methyl-N,N-diethylbenzamide], the “long-term inhibition of Varroa's response to bee headspace” value (high dose) is listed as “long-term inhibit” and the “short-term inhibition of Varroa's response to bee headspace” value is listed as “not significant”.
